Where two headings read alike, the source gives them in different places. Non-standard residues stand in square brackets, D forms with d. Residues, ends and D or L forms follow the SMILES beside them. Bpa = N[CH](Cc1ccc(C(=O)c2ccccc2)cc1)C(=O)O; 2Nal = N[CH](Cc1ccc2ccccc2c1)C(=O)O; Aib = CC(C)(N)C(=O)O
Experiments:
[1] = average over λex 224, 266, 280 nm
[2] = cited from earlier work

Structure (SMILES) | kSSET (Average) [1] [s⁻¹] | kSSET ([2]; λex 224 nm) [s⁻¹] | kSSET ([2]; λex 266 nm) [s⁻¹] | kSSET ([2]; λex 280 nm) [s⁻¹]
CC(NC(=O)C(C)(C)NC(=O)C(Cc1ccc(C(=O)c2ccccc2)cc1)NC(=O)C(C)(C)NC(=O)C(Cc1ccc2ccccc2c1)NC(=O)C(C)(C)NC(=O)C(C)NC(=O)C(C)(C)N)C(=O)O (single isomer, unassigned) [Compound 2B] | 3.9e+07 | 3.1e+07 | 3.9e+07 | 4.7e+07
CC1NC(=O)C(C)(C)NC(=O)C(Cc2ccc(C(=O)c3ccccc3)cc2)NC(=O)C(C)(C)NC(=O)C(C)NC(=O)C(C)(C)NC(=O)C(Cc2ccc3ccccc3c2)NC(=O)C(C)(C)NC1=O (centres unmarked) [Compound 1A] (cyclo([Aib][2Nal][Aib]A[Aib][Bpa][Aib]A); configuration not given here) | 3.67e+07 | 3.8e+07 | 3.6e+07 | 3.6e+07
CC(NC(=O)C(C)(C)NC(=O)C(Cc1ccc(C(=O)c2ccccc2)cc1)NC(=O)C(C)(C)NC(=O)C(C)NC(=O)C(C)(C)NC(=O)C(Cc1ccc2ccccc2c1)NC(=O)C(C)(C)N)C(=O)O (centres unmarked) [Compound 1B] (H-[Aib][2Nal][Aib]A[Aib][Bpa][Aib]A-OH; configuration not given here) | – | 2.44e+08 | 1.8e+08 | 1.36e+08
